Data taken from ChEMBL document CHEMBL1150177, “Antineoplastic agents, 178. Isolation and structure of lychnostatins 1 and 2 from the South American Lychnophora antillana” (1990).
In brackets after ≈: the same amount, converted by molar mass.

Tested on: P388
Assay: Cytotoxicity against mouse P388 cells
Type: functional
Conditions: read-out: ED50 (the source's name)

| SMILES | EC50 |
| --- | --- |
| C=C(C)C(=O)O[C@H]1C[C@@](C)(OC(C)=O)C(=O)CC[C@H](C)[C@H](O)[C@H]2OC(=O)C(=C)[C@@H]21 [LYCHNOSTATIN 1] | 2 mg/L (≈ 4.9 µM) |
| C=C(C)C(=O)O[C@H]1C[C@@](C)(OC(C)=O)C(=O)CC[C@H](C)C[C@H]2OC(=O)C(=C)[C@H]12 [LYCHNOSTATIN 2] | 0.19 mg/L (≈ 0.484 µM) |
